This is an account of results in patent US8748486B2, “Inhibitors of yeast filamentous growth and method of their manufacture” (priority 2003, dated 2014).

For series [1], the system named is C. albicans. The conditions noted are these: cited from earlier work.
Series [2] deals with C. albicans strain CAI4 (ATCC MYA-684). The experiment in a line: in vitro bioassay of inhibitory activity against C. albicans yeast-to-mycelium transition. The conditions noted are these: comparison within cis/trans pair, FIG. 2. It is filed as cell-based, Candida albicans. The procedure: An in vitro bioassay of the inhibitory activity of the fatty acids of FIG. 2 against C. albicans yeast-to-mycelium transition was carried out.
C. albicans strain CAI4 (ATCC MYA-684) was incubated at 28° C. for 24 h with shaking in a glucose salts (GS) medium (5 g of glucose, 0.26 g of Na2HPO4.12H2O, 0.66 g of KH2PO4, 0.88 g of MgSO4.7H2O, 0.33 g of NH4Cl, 16 μg of biotin per liter) supplemented with 0.1 mg/ml of uridine.
All the C. albicans cells remained, in the yeast form under these conditions. The yeast cells were washed three times with GS medium before use and then were dispersed in GS medium to give a solution with a final OD600 of 1.0.
The test compounds set out in FIG. 2 were diluted to the indicated concentrations with GS medium and were added to 100 μl of the washed C. albicans culture in 96-well microtitre plates, mixed and incubated at 37° C. for 6 hours (h).
The percentages of yeast cells and germ tubes (filamentous form) were determined microscopically by counting about 300 cells from three replicates. Inhibitory activity was defined as the mole concentration that gave a minimum of 90% inhibition (IC90) relative to control.

In series [3] the test system is C. albicans strain CAI4. The experiment in a line: toxic effect on yeast cell growth. The class given is cell-based, Candida albicans. As to conditions: for toxic effect on yeast cell growth: concentrations up to 1 mM. The procedure:
(§1) A starter culture of C. albicans strain CAI4 was prepared by growing the fungus at a low temperature (28° C.) in GS medium to maintain the yeast cell morphology. […] The synthetic DSF was indistinguishable with the natural DSF in inhibition of germ tube formation.

Series [4] deals with C. albicans strain CAI4. The series can be described thus: yeast-to-mycelium conversion of a C. albicans culture at 37° C. with or without DSF. It is filed as cell-based, Candida albicans. Here is the method:
as §1

Structures are written as SMILES.

As for `CC(C)=CCCC(C)=CCCC(C)=CC(=O)O` [Compound 3, 3,7,11-trimethyl-2,6,10-dodecatrienoic acid], in series [1], the “C. albicans germ tube (mycelium) formation” value is recorded as “inhibits”.

Turning to `C=C(C)C1CC=C(C=O)CC1` (stereo not shown) [perillaldehyde], the “formation of filamentous structures of C. albicans” value in series [1] is listed as “interfere with the formation of filamentous structures”.

For `CC(C)CCCCCCC/C=C\C(=O)O` [Compound 1, cis-11-methyl-2-dodecenoic acid], the “inhibitory activity of cis- and trans-isomer pairs compared” value in series [2] is reported as “identical inhibitory activity”. Moreover, the “effect on yeast growth” value in series [3] (FIGS. 3a and 3b) is “does not affect yeast growth”. The results for the “toxic effect on yeast cell growth” value in series [3] and in series [3] (listed as DSF) were “not observed to have a toxic effect” and “No toxic effect”, respectively. Further, the yeast-to-mycelium transition result in series [4] (30 μM, 37° C., within 6 hours, GS medium) is “completely abolished”. The “yeast-to-mycelium transition of a culture of Candida albicans” value in series [4] (FIGS. 3a and 3b) is on record as “inhibits”. Also, the “inhibition of germ tube formation compared with the natural DSF” value in series [4] (synthetic versus natural DSF) is given as “indistinguishable”.

Consider `CC(C)=CCCC(C)=CCCC(C)=CCO` [Farnesol], for which the “mycelial development of C. albicans” value in series [1] (growth morphology assay and differentiation assay, activators L-proline, N-acetylglucosamine, serum) was “prevent mycelial development”.

Turning to `CCCCCCCCC/C=C\C(=O)O` [Compound 7, cis-2-dodecenoic acid], in series [2], the “inhibitory activity of cis- and trans-isomer pairs compared” value is “very similar or identical inhibitory activity”.

Take `CC(C)CCCCCCC/C=C/C(=O)O` [Compound 2, trans-11-methyl-2-dodecenoic acid]: in series [2], the “inhibitory activity of cis- and trans-isomer pairs compared” value is “identical inhibitory activity”.

`C=C(C)C1CC=C(C)C(=O)C1` (stereo not shown) [Carvone]: the “formation of filamentous structures of C. albicans” value in series [1] is on record as “interfere with the formation of filamentous structures”.
